In PubChem BioAssay AID248 (DTP/NCI, 2004):
“And” between values parts separate entries of the source, which are not always exact repeats. Equal entries are not always repeated. Inconclusive results and toxic doses are left out.

System: L1210 leukemia ip in BDF1 mice, survival T/C
Assay: NCI In Vivo Anticancer Drug Screen. Data for tumor model L1210 Leukemia (intraperitoneal) in B6D2F1 (BDF1) mice
Conditions: endpoint: mean survival time, higher = longer survival
Summary of the method: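 Transplantable tumor model; survival measured in treated vs vehicle control mice. Value = treated/control.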

[1] = dose: 100.0 mg/kg/injection, schedule: Q04DX003 (ip), vehicle: saline
[2] = dose: 200.0 mg/kg/injection, schedule: Q04DX003 (ip), vehicle: saline
[3] = dose: 400.0 mg/kg/injection, schedule: Q04DX003 (ip), vehicle: saline
[4] = dose: 100.0 mg/kg/injection, schedule: Q01DX001 (ip), vehicle: saline
[5] = dose: 200.0 mg/kg/injection, schedule: Q01DX001 (ip), vehicle: saline
[6] = dose: 400.0 mg/kg/injection, schedule: Q01DX001 (ip), vehicle: saline
[7] = dose: 100.0 mg/kg/injection, schedule: Q01DX009 (ip), vehicle: Klucel (hydroxypropylcellulose) (HPC)
[8] = dose: 100.0 mg/kg/injection, schedule: Q04DX003 (ip), vehicle: Klucel (hydroxypropylcellulose) (HPC)
[9] = dose: 200.0 mg/kg/injection, schedule: Q01DX009 (ip), vehicle: Klucel (hydroxypropylcellulose) (HPC)
[10] = dose: 200.0 mg/kg/injection, schedule: Q04DX003 (ip), vehicle: Klucel (hydroxypropylcellulose) (HPC)
[11] = dose: 400.0 mg/kg/injection, schedule: Q01DX009 (ip), vehicle: Klucel (hydroxypropylcellulose) (HPC)
[12] = dose: 400.0 mg/kg/injection, schedule: Q04DX003 (ip), vehicle: Klucel (hydroxypropylcellulose) (HPC)
[13] = dose: 100.0 mg/kg/injection, schedule: Q04DX003 (ip), vehicle: other
[14] = dose: 100.0 mg/kg/injection, schedule: Q01DX009 (ip), vehicle: saline with Tween-80
[15] = dose: 200.0 mg/kg/injection, schedule: Q01DX009 (ip), vehicle: saline with Tween-80
[16] = dose: 400.0 mg/kg/injection, schedule: Q01DX009 (ip), vehicle: saline with Tween-80

For `C=CC(C)(C)C(=C)C`, the T/C [1] was 110 % of control, the T/C [2] was 108 % of control and the T/C [3] was 101 % of control.

With `COC(=O)CC(c1ccccc1)N1CCCC1` (stereo not given) the T/C [4] was 98 % of control, the T/C [5] was 104 % of control and the T/C [6] was 108 % of control.

For `CCCCCCCCCCCCCCCCN(C)S(=O)(=O)c1ccc(N2CCOCC2)c(N)c1`, the T/C (dose: 100.0 mg/kg/injection, schedule: Q04DX003 (ip), vehicle: gum acacia) was 88 % of control, the T/C (dose: 200.0 mg/kg/injection, schedule: Q04DX003 (ip), vehicle: gum acacia) was 93 % of control and the T/C (dose: 400.0 mg/kg/injection, schedule: Q04DX003 (ip), vehicle: gum acacia) was 86 % of control.

With `CC(C)Cc1ccccc1` the T/C [7] was 106 % of control, the T/C [8] was 110 % of control and the T/C [9] was 100 % of control. The T/C [10] was 96 % of control, the T/C [11] was 122 % of control and the T/C [12] was 96 % of control.

`CCOP(=O)(Cc1c(Cl)c(Cl)c(CP(=O)(OCC)OCC)c(Cl)c1Cl)OCC` was tested, and the T/C [4] was 107 % of control, the T/C [5] was 98 % of control and the T/C [6] was 98 % of control.

In the case of `CC(N)(COC(=O)c1ccccc1)C(=O)O` (stereo not given), the T/C [1] was 107 % of control, the T/C [2] was 96 % of control and the T/C [3] was 98 % of control.

In the case of `CCNCCCNCC`, the T/C (dose: 75.0 mg/kg/injection, schedule: Q01DX001 (ip), vehicle: saline) was 100 % of control and the T/C (dose: 150.0 mg/kg/injection, schedule: Q01DX001 (ip), vehicle: saline) was 93 % of control.

In the case of `Oc1ccc(Br)cc1/C=N/NC(=S)Nc1cccc2cccnc12`, the T/C [5] was 94 % of control and the T/C [6] was 96 % of control.

`O=C(O)c1ccc2ccccc2c1C(=O)c1ccc(F)cc1` was tested, and the T/C (dose: 100.0 mg/kg/injection, schedule: Q04DX002 (ip), vehicle: Klucel (hydroxypropylcellulose) (HPC)) was 101 % of control, the T/C [13] was 113 % of control and the T/C (dose: 200.0 mg/kg/injection, schedule: Q04DX002 (ip), vehicle: Klucel (hydroxypropylcellulose) (HPC)) was 96 % of control. The T/C (dose: 200.0 mg/kg/injection, schedule: Q04DX003 (ip), vehicle: other) was 97 % of control, the T/C (dose: 400.0 mg/kg/injection, schedule: Q04DX002 (ip), vehicle: Klucel (hydroxypropylcellulose) (HPC)) was 92 % of control and the T/C (dose: 400.0 mg/kg/injection, schedule: Q04DX003 (ip), vehicle: other) was 97 % of control.

In the case of `Cc1ccc(C(=O)[O][Hg][CH2]C2COC([CH2][Hg][O]C(=O)c3ccc(C)cc3)CO2)cc1` (stereo not given), the T/C (dose: 3.12 mg/kg/injection, schedule: Q01DX009 (ip), vehicle: Klucel (hydroxypropylcellulose) (HPC)) was 93 % of control, the T/C (dose: 6.25 mg/kg/injection, schedule: Q01DX009 (ip), vehicle: Klucel (hydroxypropylcellulose) (HPC)) was 93 % of control and the T/C (dose: 6.25 mg/kg/injection, schedule: Q01DX009 (ip), vehicle: saline with Tween-80) was 113 % of control. For the same molecule, the T/C (dose: 12.5 mg/kg/injection, schedule: Q01DX009 (ip), vehicle: Klucel (hydroxypropylcellulose) (HPC)) was 94 % of control, the T/C (dose: 12.5 mg/kg/injection, schedule: Q01DX009 (ip), vehicle: saline with Tween-80) was 100 % of control and the T/C (dose: 25.0 mg/kg/injection, schedule: Q01DX009 (ip), vehicle: saline with Tween-80) was 105 % of control. For the same molecule, the T/C (dose: 25.0 mg/kg/injection, schedule: Q04DX003 (ip), vehicle: other) was 92 % of control, the T/C (dose: 50.0 mg/kg/injection, schedule: Q04DX003 (ip), vehicle: other) was 90 % of control and the T/C [13] was 95 % of control.

In the case of `Cc1coc(NS(=O)(=O)c2ccc(N=Nc3c(N)n(C)c(=O)n(C)c3=O)cc2)c1C`, the T/C (dose: 100.0 mg/kg/injection, schedule: Q01DX001 (ip), vehicle: carboxymethylcellulose (CMC)) was 98 % of control, the T/C (dose: 200.0 mg/kg/injection, schedule: Q01DX001 (ip), vehicle: carboxymethylcellulose (CMC)) was 95 % of control and the T/C (dose: 400.0 mg/kg/injection, schedule: Q01DX001 (ip), vehicle: carboxymethylcellulose (CMC)) was 98 % of control.

In the case of `CN(C)C(=O)C(c1ccccc1)[P+](C)(c1ccccc1)c1ccccc1` (stereo not given), the T/C (dose: 75.0 mg/kg/injection, schedule: Q01DX001 (ip), vehicle: other) was 95 % of control.

For `Nc1nc(N)c2cc(CNc3ccc(C(=O)NC(C(=O)O)C(=O)O)cc3)ccc2n1`, the T/C (dose: 0.06 mg/kg/injection, schedule: Q01DX001 (ip), vehicle: saline) was 122 % of control, the T/C (dose: 0.06 mg/kg/injection, schedule: Q01DX015 (ip), vehicle: carboxymethylcellulose (CMC)) was 123 % of control and the T/C (dose: 0.25 mg/kg/injection, schedule: Q01DX015 (ip), vehicle: carboxymethylcellulose (CMC)) was 105 % of control. The T/C (dose: 5.0 mg/kg/injection, schedule: Q01DX001 (ip), vehicle: carboxymethylcellulose (CMC)) was 157 % of control and 173 % of control, the T/C (dose: 11.25 mg/kg/injection, schedule: Q01DX001 (ip), vehicle: carboxymethylcellulose (CMC)) was 91 % of control and the T/C (dose: 20.0 mg/kg/injection, schedule: Q01DX001 (ip), vehicle: carboxymethylcellulose (CMC)) was 89 % of control.

`O=C1CCCC(=O)NNC(=O)Nc2ccc(cc2)Cc2ccc(cc2)NC(=O)NN1` was tested, and the T/C (dose: 50.0 mg/kg/injection, schedule: Q01DX001 (ip), vehicle: saline) was 104 % of control, the T/C [4] was 90 % of control and the T/C [5] was 93 % of control. For the same molecule, the T/C [6] was 93 % of control.

In the case of `O=C(Nc1ccc(F)c([N+](=O)[O-])c1)Nc1cccc2c(O)cccc12`, the T/C [7] was 101 % of control, the T/C [9] was 103 % of control and the T/C [11] was 97 % of control.

For `OC1C2COc3nc4ccccc4n3C(O2)C1O` (stereo not given), the T/C [4] was 97 % of control and the T/C [5] was 95 % of control.

With `CC1(C)C(=O)C2(C(=O)O)CCC1C2` (stereo not given) the T/C [14] was 93 % of control, the T/C (dose: 100.0 mg/kg/injection, schedule: Q04DX003 (ip), vehicle: saline with Tween-80) was 101 % of control and the T/C [15] was 98 % of control. For the same molecule, the T/C (dose: 200.0 mg/kg/injection, schedule: Q04DX003 (ip), vehicle: saline with Tween-80) was 101 % of control, the T/C [16] was 96 % of control and the T/C (dose: 400.0 mg/kg/injection, schedule: Q04DX003 (ip), vehicle: saline with Tween-80) was 88 % of control.

For `COC(=O)C1CCC[N+](C)(C)C1` (stereo not given), the T/C (dose: 25.0 mg/kg/injection, schedule: Q04DX003 (ip), vehicle: saline) was 95 % of control, the T/C (dose: 50.0 mg/kg/injection, schedule: Q04DX003 (ip), vehicle: saline) was 97 % of control and the T/C [1] was 94 % of control.

For `O=C1c2c(I)c(I)c(I)c(I)c2C(=O)N1CCO`, the T/C [7] was 92 % of control, the T/C [8] was 94 % of control and the T/C [9] was 97 % of control. For the same molecule, the T/C [10] was 97 % of control, the T/C [11] was 104 % of control and the T/C [12] was 92 % of control.

In the case of `Cc1c(C)c2c(C(N)=O)c3ccccc3nc2c2ccccc12`, the T/C (dose: 50.0 mg/kg/injection, schedule: Q04DX003 (ip), vehicle: Klucel (hydroxypropylcellulose) (HPC)) was 100 % of control, the T/C [8] was 100 % of control and the T/C [10] was 92 % of control. For the same molecule, the T/C [12] was 97 % of control.

With `Cc1cccc(NC(=O)c2ccccc2C(=O)O)c1C` the T/C [7] was 98 % of control, the T/C [8] was 98 % of control and the T/C [9] was 93 % of control. The T/C [10] was 95 % of control, the T/C [11] was 96 % of control and the T/C [12] was 93 % of control.

`CCOC(=O)c1cc[n+](C)c2ccccc12` was tested, and the T/C (dose: 9.37 mg/kg/injection, schedule: Q01DX009 (ip), vehicle: acetone) was 101 % of control, the T/C (dose: 18.75 mg/kg/injection, schedule: Q01DX009 (ip), vehicle: acetone) was 95 % of control and the T/C (dose: 37.5 mg/kg/injection, schedule: Q01DX009 (ip), vehicle: acetone) was 98 % of control. For the same molecule, the T/C (dose: 37.5 mg/kg/injection, schedule: Q04DX003 (ip), vehicle: acetone) was 92 % of control, the T/C (dose: 75.0 mg/kg/injection, schedule: Q04DX003 (ip), vehicle: acetone) was 89 % of control and the T/C (dose: 150.0 mg/kg/injection, schedule: Q01DX001 (ip), vehicle: acetone) was 89 % of control.

In the case of `O=c1[nH]c(-c2ccccc2)nc(-c2ccccc2)c1CCO`, the T/C [14] was 92 % of control, the T/C [15] was 86 % of control and the T/C [16] was 91 % of control.

With `O=C(CCN1CCCCC1)c1cc(Cl)ccc1Cl` the T/C (dose: 12.5 mg/kg/injection, schedule: Q01DX009 (ip), vehicle: saline) was 93 % of control, the T/C (dose: 25.0 mg/kg/injection, schedule: Q01DX009 (ip), vehicle: saline) was 97 % of control and 98 % of control and the T/C (dose: 25.0 mg/kg/injection, schedule: Q04DX002 (ip), vehicle: saline) was 103 % of control. For the same molecule, the T/C (dose: 50.0 mg/kg/injection, schedule: Q01DX009 (ip), vehicle: saline) was 93 % of control, the T/C (dose: 50.0 mg/kg/injection, schedule: Q04DX002 (ip), vehicle: saline) was 98 % of control and the T/C (dose: 100.0 mg/kg/injection, schedule: Q01DX009 (ip), vehicle: saline) was 91 % of control. The T/C (dose: 100.0 mg/kg/injection, schedule: Q04DX002 (ip), vehicle: saline) was 100 % of control and 88 % of control.
